Key:
[1] = Subacute toxicity in Kunming mouse assessed as anorexia at 50 mg/kg, po dosed once every other day for 14 days; format: organism-based; settings: in vivo, 336 h
[2] = Acute toxicity in Kunming mouse assessed as ruffled fur at 2000 mg/kg, ig measured every day for 1 week; format: organism-based; settings: in vivo, po, 168 h
[3] = tested on: Human immunodeficiency virus 1; assay: Antiviral activity against HIV1 harboring reverse transcriptase L100I mutant infected in human MT4 cells assessed as inhibition of virus-induced cytotoxicity after 5 days by MTT assay; format: functional, organism-based; settings: Human immunodeficiency virus 1, MT4, 120 h
[4] = tested on: Human immunodeficiency virus 1; assay: Antiviral activity against HIV1 harboring reverse transcriptase Y181C mutant infected in human MT4 cells assessed as inhibition of virus-induced cytotoxicity after 5 days by MTT assay; format: functional, organism-based; settings: Human immunodeficiency virus 1, MT4, 120 h
[5] = Acute toxicity in Kunming mouse assessed as clonic convulsion at 2000 mg/kg, ig measured every day for 1 week; format: organism-based; settings: in vivo, po, 168 h
[6] = molecular target: Human immunodeficiency virus type 1 reverse transcriptase (Human immunodeficiency virus 1, UniProt Q72547); assay: Inhibition of HIV1 reverse transcriptase p66/p51 using poly(rA)/oligo(dT)16 as template/primer measured after 40 mins by pico-green based spectrofluorometric analysis
[7] = tested on: Human immunodeficiency virus 1; assay: Antiviral activity against HIV1 harboring reverse transcriptase E138K mutant infected in human MT4 cells assessed as inhibition of virus-induced cytotoxicity after 5 days by MTT assay; format: functional, organism-based; settings: Human immunodeficiency virus 1, MT4, 120 h
[8] = Subacute toxicity in Kunming mouse assessed as ruffled fur at 50 mg/kg, po dosed once every other day for 14 days; format: organism-based; settings: in vivo, 336 h
[9] = tested on: Human immunodeficiency virus 1; assay: Antiviral activity against HIV1 3B infected in human MT4 cells assessed as inhibition of virus-induced cytotoxicity after 5 days by MTT assay; format: functional, organism-based; settings: Human immunodeficiency virus 1, 3B, MT4, 120 h
[10] = Subacute toxicity in Kunming mouse assessed as pathological damage to liver at 50 mg/kg, po dosed once every other day for 14 days by hematoxylin and eosin staining based assay; format: organism-based; settings: in vivo, 336 h
[11] = Subacute toxicity in Kunming mouse assessed as mortality at 50 mg/kg, po dosed once every other day for 14 days; format: organism-based; settings: in vivo, 336 h
[12] = Acute toxicity in Kunming mouse assessed as effect on body weight at 2000 mg/kg, ig measured every day for 1 week; format: organism-based; settings: in vivo, po, 168 h
[13] = Cytotoxicity against human MT4 cells assessed as reduction in cell viability after 5 days by MTT assay; format: cell-based
[14] = tested on: Human immunodeficiency virus 1; assay: Antiviral activity against HIV1 RES056 harboring reverse transcriptase K103N/Y181C double mutant infected in human MT4 cells assessed as inhibition of virus-induced cytotoxicity after 5 days by MTT assay; format: functional, organism-based; settings: Human immunodeficiency virus 1, RES056, MT4, 120 h
[15] = Subacute toxicity in Kunming mouse assessed as effect on body weight at 50 mg/kg, po dosed once every other day for 14 days; format: organism-based; settings: in vivo, 336 h
[16] = Subacute toxicity in Kunming mouse assessed as pathological damage to spleen at 50 mg/kg, po dosed once every other day for 14 days by hematoxylin and eosin staining based assay; format: organism-based; settings: in vivo, 336 h
[17] = Acute toxicity in Kunming mouse assessed as lethargy at 2000 mg/kg, ig measured every day for 1 week; format: organism-based; settings: in vivo, po, 168 h
[18] = Acute toxicity in Kunming mouse assessed as anorexia at 2000 mg/kg, ig measured every day for 1 week; format: organism-based; settings: in vivo, po, 168 h
[19] = Subacute toxicity in Kunming mouse assessed as pathological damage to kidneys at 50 mg/kg, po dosed once every other day for 14 days by hematoxylin and eosin staining based assay; format: organism-based; settings: in vivo, 336 h
[20] = Subacute toxicity in Kunming mouse assessed as clonic convulsion at 50 mg/kg, po dosed once every other day for 14 days; format: organism-based; settings: in vivo, 336 h
[21] = Subacute toxicity in Kunming mouse assessed as lethargy at 50 mg/kg, po dosed once every other day for 14 days; format: organism-based; settings: in vivo, 336 h
[22] = tested on: Human immunodeficiency virus 1; assay: Antiviral activity against HIV1 harboring reverse transcriptase F227L/V106A double mutant infected in human MT4 cells assessed as inhibition of virus-induced cytotoxicity after 5 days by MTT assay; format: functional, organism-based; settings: Human immunodeficiency virus 1, MT4, 120 h
[23] = Acute toxicity in Kunming mouse assessed as effect on animal growth at 2000 mg/kg, ig measured every day for 1 week; format: organism-based; settings: in vivo, po, 168 h
[24] = Subacute toxicity in Kunming mouse assessed as pathological damage to lungs at 50 mg/kg, po dosed once every other day for 14 days by hematoxylin and eosin staining based assay; format: organism-based; settings: in vivo, 336 h
[25] = Acute toxicity in Kunming mouse assessed as mortality at 2000 mg/kg, ig measured every day for 1 week; format: organism-based; settings: in vivo, po, 168 h
[26] = tested on: Human immunodeficiency virus 1; assay: Antiviral activity against HIV1 harboring reverse transcriptase K103N mutant infected in human MT4 cells assessed as inhibition of virus-induced cytotoxicity after 5 days by MTT assay; format: functional, organism-based; settings: Human immunodeficiency virus 1, MT4, 120 h
[27] = tested on: Human immunodeficiency virus 1; assay: Antiviral activity against HIV1 harboring reverse transcriptase Y188L mutant infected in human MT4 cells assessed as inhibition of virus-induced cytotoxicity after 5 days by MTT assay; format: functional, organism-based; settings: Human immunodeficiency virus 1, MT4, 120 h
[28] = Subacute toxicity in Kunming mouse assessed as pathological damage to heart at 50 mg/kg, po dosed once every other day for 14 days by hematoxylin and eosin staining based assay; format: organism-based; settings: in vivo, 336 h

SMILES: Cc1cc(/C=C/C#N)cc(C)c1Oc1ccnc(Nc2ccc(CN3CCN(S(C)(=O)=O)CC3)cc2)n1
- Activity [1]: Non-Toxic
- Activity [2]: Non-Toxic
- EC50 [3]: 10 nM
- EC50 [4]: 25 nM
- Activity [5]: Non-Toxic
- IC50 [6]: 67 nM
- EC50 [7]: 7.5 nM
- Activity [8]: Non-Toxic
- EC50 ([9]; read-out: EC50): 3.5 nM
- EC50 ([9]; read-out: pEC50 (converted)): 3.47 nM
- Activity [10]: Non-Toxic
- Activity [11]: Non-Toxic
- Activity [12]: Non-Toxic
- CC50 at 120 h [13]: ≥ 173000 nM
- EC50 [14]: 790 nM
- Activity [15]: Non-Toxic
- Activity [16]: Non-Toxic
- Activity [17]: Non-Toxic
- Activity [18]: Non-Toxic
- Activity [19]: Non-Toxic
- Activity [20]: Non-Toxic
- Activity [21]: Non-Toxic
- EC50 [22]: 110 nM
- Activity [23]: Non-Toxic
- Activity [24]: Non-Toxic
- Activity [25]: Non-Toxic
- EC50 [26]: 3.6 nM
- EC50 [27]: 1620 nM
- Activity [28]: Non-Toxic
